2 compounds from patent US20200352991A1, “POLYMER FILMS WITH ANTIMICROBIAL AGENTS” (The Trustees of Columbia University in the City of New York, priority 2017, published 2020) can be followed below.

In test [1] the test system is P. aeruginosa (ATCC 15442). As to the kind of experiment: Zone of inhibition test of coated endotracheal tubes, modified Kirby-Bauer method. The format is cell-based. The following applies: coated endotracheal tube segments, 24 hours, ETT diameter (10 mm) is included.
Procedure: Efficacy of the coated tubes was evaluated by zone of inhibition test against P. aeruginosa (ATCC 15442) after 24 hours.
Method: The anti-microbial efficacy of the coated endotracheal tube (ETT) was evaluated by zone of inhibition test against P. aeruginosa (ATCC 15442) according to the modified Kirby-Bauer method. Trypticase soy agar (TSA) plates were seeded with 0.3 mL of overnight grown bacterial culture diluted to 107 colony forming units (CFU) per mL.
Antimicrobial coated ETTs were cut into 0.5 cm segments and embedded vertically into the agar plate. Uncoated ETT segments were used as control. After 24 hours of incubation at 37° C., the diameters of zones of inhibition around the ETT segments, including the diameters of the ETT, were measured.
Another test relates to S. aureus. Nature of the test: Rapid kill test, 15 second time kill. The format is cell-based. The following applies: 100 ul of 104 S. aureus culture, 15 second time kill.

As to `[H]/N=C(\N/C(=N/[H])NCCCCCCNC(=N)NC(=N)Nc1ccc(Cl)cc1)Nc1ccc(Cl)cc1` [Chlorhexidine (CHX, 0.3%), Chlorhexidine], the “Zone of inhibition against P. aeruginosa” value in test [1] was determined as 20 mm. Besides, the Log10 reduction in the test with S. aureus amounted to 4.51 Log10.

Regarding `CC(=O)N[C@@H](CS)C(=O)O` [N-acetyl cystein (NAC, 1%), N-acetyl cystein], the “Zone of inhibition against P. aeruginosa” value in test [1] stood at 0 mm. In the test with S. aureus, the Log10 reduction is 0.34 Log10.
